US20110118314A1, “PIPERIDINE ANALOGS AS GLYCOGEN SYNTHASE ACTIVATORS” (priority 2009, published 2011)

Test system: glycogen synthase
Assay: Glycogen Synthase (GS) Assay
Format: biochemical
Conditions: for EC50: compound concentration needed to give 50% maximum activation; for GS SC200: compound concentration needed to stimulate 200% of the enzyme activity
Protocol: The following tests were carried out in order to determine the activity of the compounds of formula (I).
Twelve μL per well of substrate solution containing glycogen (4.32 mg/mL), 2.67 mM UDP-glucose, 21.6 mM phospho(enol)pyruvate and 2.7 mM NADH in 30 mM glycylglycine, pH 7.3 buffer was added into a polystyrene 384-well assay plate (BD Biosciences).
Compound solutions (8 μL/well) at various concentrations (0-300 μM) were added to the assay plate (columns 5-24). Compound solution contains 30 mM glycylglycine, pH 7.3, 40 mM KCl, 20 mM MgC12, 9.2% DMSO, with (columns 15-24) or without (columns 5-14) 20 mM glucose 6-phosphate.
Enzyme solution (12 μL/well) containing glycogen synthase (16.88 μg/mL), pyruvate kinase (0.27 mg/mL), lactate dehydrogenase (0.27 mg/mL) in 50 mM Tris-HCl, pH 8.0, 27 mM DTT and bovine serum albumin (BSA, 0.2 mg/mL) was added to the assay plate (columns 3-24). As a blank control, enzyme solution without glycogen synthase was added into the top half wells of columns 1-2. To the bottom half wells of columns 1-2 were added a known activator, glucose 6-phosphate (at final concentration 5 mM) in addition to the enzyme solution. The reaction mixture was incubated at room temperature. The assay plate was then read for absorbance at 340 nm on an Envision reader every 3 minutes up to a total of 15 minutes.
The enzyme activity (with or without compound) was calculated by the reaction rate and represented by the optical density change (SOD) per minute. Percent stimulation of glycogen synthase activity by a compound at various concentrations was calculated by the following formula: […]
where Rs is the reaction rate of the enzyme in the presence of compound and Rt is the reaction rate of the enzyme in the absence of compound.
SC200 is defined as the compound concentration that is needed to stimulate 200% of the enzyme activity. EC50 is defined as the compound concentration that is needed to give 50% maximum activation.
Compounds from Example 1 through Example 36 were assayed according to assay procedures described above and the results are listed in Table 1 below: […]

Compound | EC50 [µM] | GS SC200 [µM]
COc1cc(F)c(F)cc1-c1ccc(OC[C@H]2CCCN(C(=O)N(C)CC(=O)NS(C)(=O)=O)C2)cc1 [Example 32, (S)-3-(4′,5′-Difluoro-2′-methoxy-biphenyl-4-yloxymethyl)-piperidine-1-carboxylic acid (2-methanesulfonylamino-2-oxo-ethyl)-methyl-amide] | 0.2 | 0.06
COc1cc(F)c(F)cc1-c1ccc(OCC2CCN(C(=O)N(C)CC(=O)O)C2)cc1 (stereo not shown) [Example 26, {[3-(4′,5′-Difluoro-2′-methoxy-biphenyl-4-yloxymethyl)-pyrrolidine-1-carbonyl]-methyl-amino}-acetic acid] | 24.7 | 5.97
COc1cc(F)c(F)cc1-c1ccc(OCC2CCCN(C(=O)N3CCC[C@H]3C(=O)O)C2)cc1 (stereo partly drawn) [Example 27, (S)-1-[3-(4′,5′-Difluoro-2′-methoxy-biphenyl-4-yloxymethyl)-piperidine-1-carbonyl]-pyrrolidine-2-carboxylic acid] | 1.29 | 0.22
COc1cc(F)c(F)cc1-c1ccc(OC[C@H]2CCCN(C(=O)N(CC(=O)O)Cc3ccccc3)C2)cc1 (single isomer, unassigned) [Example 24] | 4.76 | 1.99
COc1cc(F)c(F)cc1-c1ccc(OC[C@@H]2CCCN(C(=O)N(CC(=O)O)Cc3ccccc3)C2)cc1 (single isomer, unassigned) [Example 23] | 0.95 | 0.23
COc1cc(F)c(F)cc1-c1ccc(OCC2CCCN(C(=O)N(CCC(=O)O)Cc3ccccc3)C2)cc1 (stereo not shown) [Example 28, 3-{Benzyl-[3-(4′,5′-difluoro-2′-methoxy-biphenyl-4-yloxymethyl)-piperidine-1-carbonyl]-amino}-propionic acid] | 6.29 | 2.52
COc1cc(F)c(F)cc1-c1ccc(OCC2CCCN(C(=O)[C@H](CC(=O)O)N(C)C(C)=O)C2)cc1 (stereo partly drawn) [Example 13, (S)-3-(Acetyl-methyl-amino)-4-[3-(4′,5′-difluoro-2′-methoxy-biphenyl-4-yloxymethyl)-piperidin-1-yl]-4-oxo-butyric acid] | 12.3 | 2.12
COc1cc(F)c(F)cc1-c1ccc(OCC2CCCN(C(=O)C3CCS(=O)(=O)N3)C2)cc1 (stereo not shown) [Example 21, [3-(4′,5′-Difluoro-2′-methoxy-biphenyl-4-yloxymethyl)-piperidin-1-yl]-(1,1-dioxido-3-isothiazolidin-3-yl)-methanone] | 7.3 | –
CONC(=O)CC(=O)N1CCCC(COc2ccc(-c3cc(F)c(F)cc3OC)cc2)C1 (stereo not shown) [Example 5, 3-[3-(4′,5′-Difluoro-2′-methoxy-biphenyl-4-yloxymethyl)-piperidin-1-yl]-N-methoxy-3-oxo-propionamide] | 6.42 | 0.99
COc1cc(F)c(F)cc1-c1ccc(OC[C@H]2CCCN(C(=O)CC(=O)O)C2)cc1 (single isomer, unassigned) [Example 3] | 0.35 | 0.21
